Assay results reported in patent US20160120882A1, “COMPOSITION HAVING A BENEFICIAL EFFECT ON THE CARDIOVASCULAR SYSTEM” (ESSENTIAL IP BV, priority 2013, published 2016).
Where “and” joins values, the source holds several entries; their conditions need not be identical. Equal entries are not always repeated. Structures can show the parent of a compound that is named as a salt. Where two headings read alike, the source gives them in different places.

What was measured:
[1] = high versus low dietary intake of vitamin K2; cited from earlier work
[2] = per increase in dietary intake of vitamin K2 by 10 microgram; 8 years, 480 cardiovascular events; cited from earlier work
[3] = daily intake of Red Yeast Rice containing 10 mg monacolin K; cited from earlier work
[4] = system: human monocytic THP-1 cells; assay: uptake of fluorescently labeled oxLDL by PMA-stimulated THP-1 macrophages (foam cell formation model), FACS; type: cell-based; conditions: for effect on the uptake of oxLDL: PMA-stimulated THP-1 cells, FIG. 1; for oxLDL uptake, Average: average of 6 independent measurements; for oxLDL uptake, Average / oxLDL uptake [Median Fluorescence intensity]: VitD3 100 nM, lycopene 0.5 uM, monacolin K 10 uM, control average 12617; for oxLDL uptake [Median Fluorescence intensity]: single measurement (1-6), 24 h pre-treatment, then 10 ug/ml Dil-oxLDL 24 h
Excerpt: We employed a model for measuring the oxLDL uptake by macrophages, a known and accepted model for determining foam cell formation, which in turn is an accepted measure for plaque formation as well as for the development of atherosclerosis and decreasing vascular health in general. Our experimental data are therefore relevant for determining the beneficial effects of several active ingredients on the cardiovascular system.
More in detail, we stimulated human monocytic THP-1 cells [Tsuchiya S, Yamabe M, Yamaguchi Y, Kobayashi Y, Konno T, Tada K (August 1980). “Establishment and characterization of a human acute monocytic leukemia cell line (THP-1)”. Int. J. Cancer 26 (2): 171-6. doi:10.1002/ijc.2910260208.] with phorbol 12-myristate 13-acetate (PMA) and contacted or pre-treated the cells with a number of active ingredients. After 24 hours of pre-treatment, the cells were contacted with or exposed to fluorescently labeled oxLDL and uptake of oxLDL was determined after 24 hours (see example 1).
THP-1 cells (P7) were plated in a 96-wells suspension culture plate at a density of 1*10̂6 cells/ml whereby 1*10̂5 cells were plated. Cells were cultured in IMDM phenol-red free medium (Invitrogen, Eugene, Oreg., USA) enriched for 10% fetal calf serum (FCS), 100 U/ml penicillin, 100 μg/ml streptomycin and 2 mM L-glutamin. Monocytes were differentiated with 50 ng/ml phorbol 12-myristate 13-acetate (PMA) (Sigma Aldrich, St. Louis, Mo. USA) for 48 h where after medium was replaced. After differentiation, macrophages were cultured in the presence or absence of different compounds for 24h (Table 2). After pre-treatment, cells were exposed to 10 ug/ml Dil-labeled oxidized lipoprotein (oxLDL) (Biotrend Chemikalien GmbH, Cologne, Germany) for another 24h at 37° C. to enable foam cell formation in the absence of presence of the different compounds (FIG. 1). After this, cells were washed with PBS (−/−) (PAA, Pitscataway, N.J., USA) and detached by Lidocaine hydrochloride (4 mg/ml) EDTA (10 mM) solution (Sigma Aldrich, St. Louis, Mo. USA)/(Invitrogen, Eugene, Oreg., USA). Cells were washed two more times with FACS buffer (PBS containing 0.5% BSA and 0.2 mM EDTA) and transferred to a 96 U-shaped plate for FACS analysis. Analysis was performed on the FACS Canto II HTS and 1,1′-dioctadecyl-3,3,3′3′-tetra-methylindocyanide percholorate (Dip-labeled oxLDL uptake was measured in PE-A channel.
Macrophages were exposed to vitamin D3, lycopene and/or monacolin K and the inhibitory effect of oxLDL uptake of these three active ingredients was measured. The inhibitory potentiol of each compound and composition was expressed as the difference between the measurements obtained with and without the compound or composition.

[5] = cited from earlier work
[6] = cyclosporine 3 mg/kg twice daily; berberine 0.2 g three times a day for three months; cited from earlier work
CYP1A1 = target: T1, CYP1A1 (Homo sapiens, UniProt P04798); conditions: in vitro; cited from earlier work
T1 sequence (P04798 1-512): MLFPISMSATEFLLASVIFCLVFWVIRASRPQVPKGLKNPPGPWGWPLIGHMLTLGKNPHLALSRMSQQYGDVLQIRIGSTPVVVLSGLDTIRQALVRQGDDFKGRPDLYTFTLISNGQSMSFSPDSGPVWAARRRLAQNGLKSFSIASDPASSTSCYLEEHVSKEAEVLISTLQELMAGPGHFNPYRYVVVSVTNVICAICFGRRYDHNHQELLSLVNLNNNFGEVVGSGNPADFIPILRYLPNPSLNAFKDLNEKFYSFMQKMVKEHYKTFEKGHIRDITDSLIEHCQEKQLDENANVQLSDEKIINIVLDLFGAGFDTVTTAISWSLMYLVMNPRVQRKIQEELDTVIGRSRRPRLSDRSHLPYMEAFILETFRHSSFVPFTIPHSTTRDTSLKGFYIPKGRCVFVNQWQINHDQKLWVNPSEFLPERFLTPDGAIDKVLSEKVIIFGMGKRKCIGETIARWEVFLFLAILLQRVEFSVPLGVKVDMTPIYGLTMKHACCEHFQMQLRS

[7] = clinical studies; cited from earlier work
[8] = rat, in vivo; cited from earlier work
[9] = mouse, in vivo; cited from earlier work
[10] = cited from earlier work; remark: listed apart in the source
[11] = lycopene from all sources (EFSA, 2008); cited from earlier work
[12] = lycopene group versus 30% in control group; cited from earlier work
[13] = cited from earlier work; remark: listed apart in the source
[14] = subjects with high blood pressure; cited from earlier work
[15] = various clinical trial data; cited from earlier work
[16] = calculated from the NOAEL in rats; cited from earlier work
[17] = subgroup of trials using lycopene dosages of >=25 mg daily

For `CC(C)=CCC/C(C)=C/CC/C(C)=C/CC/C(C)=C/CC1=C(C)C(=O)c2ccccc2C1=O` [vitamin K2, Vitamin K2], the “less calcification of the aorta” value [1] is given as 52%, the less myocardial infarctions [1] is given as 57% and the less overall mortality [1] is given as 26%. The risk reduction [2] was 9%.
In the case of `CC[C@H](C)C(=O)O[C@H]1C[C@@H](C)C=C2C=C[C@H](C)[C@H](CC[C@@H]3C[C@@H](O)CC(=O)O3)[C@H]21` [Monacolin K], the LDL cholesterol lowering [3] is given as “LDL cholesterol lowering of 7-25%”, the “lowering of triglyceride blood levels” value [3] is given as “by 10-44%” and the “relative increase of HDL” value [3] is given as “Relative increase of HDL up to 17%”. For the same compound, the “effect on the uptake of oxLDL” value [4] was “no effect”, the “oxLDL uptake, Average” value [4] was 12667 Median Fluorescence intensity and the “oxLDL uptake [Median Fluorescence intensity]” value [4] was 14300 Median Fluorescence intensity and 11900 Median Fluorescence intensity and 11700 Median Fluorescence intensity and 11800 Median Fluorescence intensity and 14400 Median Fluorescence intensity.
In the case of `COc1ccc2cc3[n+](cc2c1OC)CCc1cc2c(cc1-3)OCO2` [Berberine], the “reduction of fasting plasma insulin” value ([5]; P<0.001) is listed as 28.1%, the “reduction of insulin resistance index” value ([5]; P<0.001) is listed as 44.7% and the HBA1c after treatment ([5]; decreased from 8.1%) is listed as 7.3%. The “increase of mean cyclosporine A Area under the Curve (AUC)” value [6] was 34.5%, the “effect on CYP1A1” value (CYP1A1) was “inhibit CYP1A1” and the “reduction of total cholesterol” value [7] was 15-18%.
In the case of `COc1ccc2cc3[n+](cc2c1OC)CCc1cc2c(cc1-3)OCO2` [berberine HCL], the LD50 [8] is given as over 15000 mg/kg and the LD50 [9] is given as over 29586 mg/kg.
In the case of `CC(C)=CCC/C(C)=C/C=C/C(C)=C/C=C/C(C)=C/C=C/C=C(C)/C=C/C=C(C)/C=C/C=C(\C)CCC=C(C)C` [Lycopene], the HDL levels ([10]; meta-analysis of 12 studies) is given as “remained unchanged”, the LDL cholesterol lowering [10, 17] is given as “LDL cholesterol lowering of 10%” and the “total serum cholesterol lowering” value [10, 17] is given as 10%. The LDL cholesterol lowering ([10]; subgroup of trials using lycopene dosages of >=25 mg daily, listed as lycopene) was 10%, the “acceptable daily intake (ADI)” value [11] was 0.5 mg/kg/day and the “incidence of prostate cancer” value [12] was 10%. The “Systolic blood pressure lowering” value ([13]; Table 1 summary range) was 5.6-9.5 mmHg, the “systolic blood pressure reducing effect” value ([13]; meta-analysis of 4 studies) was 5.60 mmHg and the “systolic blood pressure reduction” value ([13]; subgroup of trials with high blood pressure at baseline (SBP >=140 mm Hg)) was 9.35 mmHg. The “effect on the uptake of oxLDL” value [4] was “slightly inhibited”, the “oxLDL uptake, Average” value [4] was 11405 Median Fluorescence intensity and the “oxLDL uptake [Median Fluorescence intensity]” value [4] was 9832 Median Fluorescence intensity and 11500 Median Fluorescence intensity and 12200 Median Fluorescence intensity and 11900 Median Fluorescence intensity and 11300 Median Fluorescence intensity and 11700 Median Fluorescence intensity.
For `C=C1CC[C@H](O)C/C1=C/C=C1\CCC[C@]2(C)[C@@H]([C@H](C)CCCC(C)C)CC[C@@H]12` [VitD3, Vitamin D3], the “effect on the uptake of oxLDL” value [4] was “no effect”, the “oxLDL uptake, Average” value [4] was 12300 Median Fluorescence intensity and the “oxLDL uptake [Median Fluorescence intensity]” value [4] was 13100 Median Fluorescence intensity and 13200 Median Fluorescence intensity and 12600 Median Fluorescence intensity and 10900 Median Fluorescence intensity.
In the case of `COC1=C(OC)C(=O)C(C/C=C(\C)CC/C=C(\C)CC/C=C(\C)CC/C=C(\C)CC/C=C(\C)CC/C=C(\C)CC/C=C(\C)CC/C=C(\C)CC/C=C(\C)CCC=C(C)C)=C(C)C1=O` [CoQ10, Coenzyme Q10], the “mean decrease in diastolic blood pressure” value [14] is given as 7-10 mmHg, the “mean decrease in systolic blood pressure” value [14] is given as 11-17 mmHg and the “observed safety level (OSL)” value [15] is given as 1200 mg/day/person. The “acceptable daily intake (ADI)” value [16] was 12 mg/kg/day.
